Experimental data: patent US9617262B2, “Antibacterial cyclopental[C]pyrrole substituted 3,4-dihydro-1H-[1,8]naphthyridinones” (Janssen Sciences Ireland UC, priority 2011, dated 2017)

Assays:
[1] = molecular target: S. aureus ATCC 29213 FabI (Staphylococcus aureus (strain MRSA252), UniProt Q6GI75); assay: Staphylococcus aureus FabI enzyme inhibition assay; format: biochemical; settings: pH 6.5, 30 minutes at room temperature
Method: FabI enzyme inhibition assays were carried out in half-area, 384-well microtitre plates. Compounds were evaluated in 40-μl assay mixtures containing 100 mM NaADA, pH 6.5 (ADA=N-[2-acetamido]-2iminodiacetic acid), 250 μM crotonoyl-CoA, 625 μM NADH and 50 μg/ml S. aureus ATCC 29213 FabI. Inhibitors were typically varied over the range of 50 to 0.39 μM. The reaction mixtures were incubated for 30 minutes at room temperature and the reaction was stopped by adding 200 mM Tris buffer (pH 9.0) to create a pH-shift. The consumption of NADH was monitored by measuring the change in absorbance at […]. By comparing sample readings to those of negative (absence of compound) and positive (absence of enzyme) controls, the percent inhibition of enzymatic activity of the compounds was determined. A best-fit curve is fitted by a minimum of squares method. From this an IC50-value (expressed in μg/ml), resulting in 50% inhibition of enzymatic activity, was obtained.

[2] = test system: Staphylococcus aureus ATCC 29213; assay: Antibacterial susceptibility testing: IC90 determination (STA); format: cell-based; settings: STA ATCC 29213, 90% inhibitory concentration for bacterial growth
Method: (§1) The following bacteria were used: Staphylococcus aureus ATCC 29213, methicillin-resistant Staphylococcus aureus (MRSA) ATCC 700788 and Escherichia coli ATCC 35218. The bacteria used in this study were grown overnight in flasks containing 100 ml Mueller-Hinton broth (Difco cat. nr. 0757-17) in sterile de-ionized water, with shaking, at 37° C. Stocks were store at −70° C. until use.
(§2) Bacteria were incubated on a tryptic soy agar plate containing 5% sheep blood (Becton Dickinson cat. nr. 254053) for 18-24 hours at 35° C. in aerobic conditions (first passage). For the second passage, fresh Mueller-Hinton broth is inoculated with 5-10 colonies and grown overnight at 35° C. until turbidity (reaching log-phase) in aerobic conditions is reached. The bacterial suspension is then adjusted to 0.5 McFarland density and further diluted 1:100 in Mueller Hinton broth medium. This is used as inoculum.
(§3) MIC assays were performed by the broth microdilution method in a 96-well format (flat-bottom microtitre plates) with a final volume of 0.1 ml Mueller Hinton broth containing two-fold serial dilutions of compounds and inoculated with 5×10^5 CFU/ml of bacteria (standard inoculum size according to CLSI guidelines). Inhibitors are typically varied over the range of 63 to 0.49 μM. The final DMSO concentration in the assay was 1.25% (maximum tolerable DMSO concentration=6%). In the assays where the effect of human serum on the activity of the compounds against S. aureus was tested, human serum was added at a final concentration of 10%. The plates were incubated at 35° C. for 16-20 hours. At the end of incubation the bacterial growth was quantified fluorometrically. For this, resazurin was added to all wells and the plates were re-incubated. The incubation time is dependent on the type of bacteria. A change in color from blue to pink indicated the growth of bacteria. The fluorescence was read in computer-controlled fluorometer (Fluoroskan Ascent FL, Labsystems) at an excitation wavelength 540 nm and an emission wavelength of 590 nm. The % growth inhibition achieved by the compounds was calculated according to standard methods. The IC90 (expressed in μg/ml) was defined as the 90% inhibitory concentration for bacterial growth. A panel of reference compounds were simultaneously tested for QC approval.

S. aureus = assay: Antibacterial susceptibility testing: IC90 determination with 10% human serum (STA + 10% HS); format: cell-based, Staphylococcus aureus; settings: human serum at a final concentration of 10%
Method: as §1, §2, §3
The results are depicted in the table D2 below (STA+10% HS).

Human HelaM cells = assay: Cytotoxicity MTT assay (TOX HELAM); format: cell-based; settings: 72 hours
Method: Cytotoxicity of the compounds was evaluated using the MTT assay. Human HelaM cells grown in 96-well plates were exposed to serial dilutions of the tested compounds (final volume of 0.2 ml) and incubated for 72 hours at 37° C. and 5% CO2. Inhibitors are typically varied over the range of 25 to 0.8 μM. The final DMSO concentration in the assay is 0.5%. MTT (3-(4,5-Dimethylthiazol-2-yl)-2,5-diphenyltetrazolium bromide, a tetrazole) was added and reduced to purple formazan only in living cells. Solubilization of the formazan crystals was achieved by adding 100 μl 2-propanol. Cell viability was determined by measuring the absorbance of the reduced formazan, giving a purple color, at 540 nm and 690 nm. The absorbance measured at 690 nm was automatically subtracted from the absorbance at 540 nm, to eliminate the effects of non-specific absorption. The percent cytotoxicity achieved by the compounds was calculated according to standard methods. Cytotoxicity is reported as CC50, the concentration that causes a 50% reduction in cell viability.
The results are depicted in the table D2 below (TOX HELAM).

Compound | FabI IC50 [1] [µg/mL] | STA (361.159) IC90 [2] [µg/mL] | STA + 10% HS (361.169) IC90 (S. aureus) [µg/mL] | TOX HELAM (222.125) CC50 (Human HelaM cells) [µg/mL]
O=C1CCc2cc(/C=C/C(=O)N3CC4C=C(c5ccco5)CC4C3)cnc2N1 (stereo not drawn) [compound 19] | ~0.62 | 0.18 | 0.12 | >9.43
O=C1CCc2cc(/C=C/C(=O)N3C[C@H]4CN(Cc5cccs5)C[C@H]4C3)cnc2N1 [compound 6] | 3.73 | – | – | –
O=C1CCc2cc(/C=C/C(=O)N3C[C@@H]4CN(c5cccs5)C[C@@H]4C3)cnc2N1 [compound 4] | 0.70 | – | – | –
Cn1nccc1C1=CC2CN(C(=O)/C=C/c3cnc4c(c3)CCC(=O)N4)CC2C1 (stereo not drawn) [compound 15] | 0.48 | 0.74 | 0.72 | >9.783
Cn1cc(C2=CC3CN(C(=O)/C=C/c4cnc5c(c4)CCC(=O)N5)CC3C2)cn1 (stereo not drawn) [compound 27] | 0.6 | – | – | –
Cc1ccc(C2=CC3CN(C(=O)/C=C/c4cnc5c(c4)CCC(=O)N5)CC3C2)o1 (stereo not drawn) [compound 57] | 0.62 | – | – | –
O=C1CCc2cc(/C=C/C(=O)N3C[C@@H]4CN(c5cccc(Cl)c5)C[C@@H]4C3)cnc2N1 [compound 36] | 0.93 | – | – | –
COC1CC2CN(C(=O)/C=C/c3cnc4c(c3)CCC(=O)N4)CC2C1 (stereo not drawn) [compound 31] | 1.42 | – | – | –
O=C1CCc2cc(/C=C/C(=O)N3CC4CC(n5cccn5)CC4C3)cnc2N1 (stereo not drawn) [compound 29] | 1.04 | – | – | –
COc1ccccc1N1C[C@H]2CN(C(=O)/C=C/c3cnc4c(c3)CCC(=O)N4)C[C@H]2C1 [compound 8] | 0.50 | 1.15 | 1.52 | >10.5122
N#Cc1ccccc1C1=CC2CN(C(=O)/C=C/c3cnc4c(c3)CCC(=O)N4)CC2C1 (stereo not drawn) [compound 23] | 0.41 | 0.67 | 0.79 | >10.3108
O=C1CCc2cc(/C=C/C(=O)N3CC4C=C(c5cccnc5)CC4C3)cnc2N1 (racemic) [compound 26] | 0.41 | 1.11 | 1.11 | >3.8646
O=C1CCc2cc(/C=C/C(=O)N3CC4CC(n5ccnn5)CC4C3)cnc2N1 (stereo not drawn) [compound 38] | 2.08 | – | – | –
Cc1ccccc1C1=CC2CN(C(=O)/C=C/c3cnc4c(c3)CCC(=O)N4)CC2C1 (stereo not drawn) [compound 11] | 0.48 | 0.37 | 1.76 | 6.19
CC(=O)c1ccc(C2=CC3CN(C(=O)/C=C/c4cnc5c(c4)CCC(=O)N5)CC3C2)s1 (stereo not drawn) [compound 62] | 0.44 | – | – | –
O=C1CCc2cc(/C=C/C(=O)N3C[C@@H]4CN(c5ccccc5Cl)C[C@@H]4C3)cnc2N1 [compound 18] | 0.44 | 0.21 | 0.37 | >10.6233
COc1ccsc1C1=CC2CN(C(=O)/C=C/c3cnc4c(c3)CCC(=O)N4)CC2C1 (stereo not drawn) [compound 72] | 0.43 | – | – | –
O=C1CCc2cc(/C=C/C(=O)N3CC4C=C(c5nccs5)CC4C3)cnc2N1 (stereo not drawn) [compound 32] | 0.46 | – | – | –
